Data reported in ChEMBL document CHEMBL1134446, “Polyamine analogue antidiarrheals: a structure-activity study” (J Med Chem, 2001).
Where “and” joins values, the source holds several entries; their conditions need not be identical. Equal values may be shown once.

Legend:
Format in all cases: functional
[1] = tested on: Rattus norvegicus; experiment: Stool output of rat over the 6-h collection period when a dose of 24.87 mg/kg (57.8 administered
[2] = tested on: Rattus norvegicus; experiment: Stool output of rat over the 6-h collection period when a dose of 4.97 mg/kg (11.6 uMl) was administered
[3] = tested on: Rattus norvegicus; experiment: Weight loss of rat over the 6-h experimental period when a dose of 0.03125 mg/kg (0.0726 administered
[4] = tested on: Rattus norvegicus; experiment: Weight loss of rat over the 6-h experimental period when a dose of 0.0625 mg/kg (0.145 administered
[5] = tested on: Rattus norvegicus; experiment: Weight loss of rat over the 6-h experimental period when a dose of 0.125 mg/kg (0.29 administered
[6] = tested on: Rattus norvegicus; experiment: Weight loss of rat over the 6-h experimental period when a dose of 0.25 mg/kg (0.58 administered
[7] = tested on: Rattus norvegicus; experiment: Weight loss of rat over the 6-h experimental period when a dose of 0.5 mg/kg (1.16 administered
[8] = tested on: Rattus norvegicus; experiment: Weight loss of rat over the 6-h experimental period when a dose of 0.99 mg/kg (2.3 administered
[9] = tested on: Rattus norvegicus; experiment: Weight loss of rat over the 6-h experimental period when a dose of 0 mg/kg (0 administered
[10] = tested on: Rattus norvegicus; experiment: Weight loss of rat over the 6-h experimental period when a dose of 0.0078 mg/kg (0.0181 administered
[11] = tested on: Rattus norvegicus; experiment: Weight loss of rat over the 6-h experimental period when a dose of 0.0156 mg/kg (0.036 administered
[12] = tested on: Rattus norvegicus; experiment: Weight loss of rat over the 6-h experimental period when a dose of 24.87 mg/kg (57.8 administered
[13] = tested on: Rattus norvegicus; experiment: Weight loss of rat over the 6-h experimental period when a dose of 4.97 mg/kg (11.6 administered
[14] = tested on: Rattus norvegicus; experiment: Percent reduction was determined by using the ratio of mean of treated animal to that of control animal at a dose of 24.87 mg/kg
[15] = tested on: Rattus norvegicus; experiment: Percent reduction was determined by using the ratio of mean of treated animal to that of control animal at a dose of 4.97 mg/kg
[16] = tested on: Rattus norvegicus; experiment: Stool output of rat over the 6-h collection period when a dose of 0.0078 mg/kg (0.0181 administered
[17] = tested on: Rattus norvegicus; experiment: Stool output of rat over the 6-h collection period when a dose of 0.0156 mg/kg (0.036 administered
[18] = tested on: Rattus norvegicus; experiment: Stool output of rat over the 6-h collection period when a dose of 0.03125 mg/kg (0.0726 administered
[19] = tested on: Rattus norvegicus; experiment: Stool output of rat over the 6-h collection period when a dose of 0.0625 mg/kg (0.145 administered
[20] = tested on: Rattus norvegicus; experiment: Stool output of rat over the 6-h collection period when a dose of 0.125 mg/kg (0.29 administered
[21] = tested on: Rattus norvegicus; experiment: Stool output of rat over the 6-h collection period when a dose of 0.25 mg/kg (0.58 administered
[22] = tested on: Rattus norvegicus; experiment: Stool output of rat over the 6-h collection period when a dose of 0.5 mg/kg (1.16 administered
[23] = tested on: Rattus norvegicus; experiment: Stool output of rat over the 6-h collection period when a dose of 0.99 mg/kg (2.3 administered
[24] = tested on: Rattus norvegicus; experiment: Stool output of rat over the 6-h collection period when a dose of 0 mg/kg (0 administered
[25] = tested on: Rattus norvegicus; experiment: Percent reduction was determined by using the ratio of mean of treated animal to that of control animal at a dose of 0.5 mg/kg
[26] = tested on: Rattus norvegicus; experiment: Percent reduction was determined by using the ratio of mean of treated animal to that of control animal at a dose of 0.0078 mg/kg
[27] = tested on: Rattus norvegicus; experiment: Percent reduction was determined by using the ratio of mean of treated animal to that of control animal at a dose of 0.0156 mg/kg
[28] = tested on: Rattus norvegicus; experiment: Percent reduction was determined by using the ratio of mean of treated animal to that of control animal at a dose of 0.03125 mg/kg
[29] = tested on: Rattus norvegicus; experiment: Percent reduction was determined by using the ratio of mean of treated animal to that of control animal at a dose of 0.0625 mg/kg
[30] = tested on: Rattus norvegicus; experiment: Percent reduction was determined by using the ratio of mean of treated animal to that of control animal at a dose of 0.125 mg/kg
[31] = tested on: Rattus norvegicus; experiment: Percent reduction was determined by using the ratio of mean of treated animal to that of control animal at a dose of 0.25 mg/kg
[32] = tested on: Rattus norvegicus; experiment: Percent reduction was determined by using the ratio of mean of treated animal to that of control animal at a dose of 0.99 mg/kg
[33] = tested on: Rattus norvegicus; experiment: Stool output of rat over the 6-h collection period when a dose of 28.2 mg/kg (57.8 administered
[34] = tested on: Rattus norvegicus; experiment: Stool output of rat over the 6-h collection period when a dose of 5.7 mg/kg (11.6 administered
[35] = tested on: Rattus norvegicus; experiment: Weight loss of rat over the 6-h experimental period when a dose of 1.1 mg/kg (2.3 administered
[36] = tested on: Rattus norvegicus; experiment: Weight loss of rat over the 6-h experimental period when a dose of 28.2 mg/kg (57.8 administered
[37] = tested on: Rattus norvegicus; experiment: Weight loss of rat over the 6-h experimental period when a dose of 5.7 mg/kg (11.6 administered
[38] = tested on: Rattus norvegicus; experiment: Percent reduction was determined by using the ratio of mean of treated animal to that of control animal at a dose of 28.2 mg/kg
[39] = tested on: Rattus norvegicus; experiment: Stool output of rat over the 6-h collection period when a dose of 1.1 mg/kg (2.3 administered

Which results are given for `CCNCCCNC1CCC(NCCCNCC)CC1` (stereo unspecified)?
Stool output [1]: <0 g (350g of rat weight)-1; Stool output [2]: <0 g (350g of rat weight)-1; Weight loss [3]: <4.2 g; Weight loss [4]: <3.7 g; Weight loss [5]: <4.1 g; Weight loss [6]: <2.7 g; Weight loss [7]: <2.9 g; Weight loss [8]: <2.7 g; Weight loss [9]: 11.6 g; Weight loss [10]: <8.8 g; Weight loss [11]: <3.1 g; Weight loss [12]: <0.8 g; Weight loss [13]: <1.6 g; Reduction [14]: 93% and 100%; Reduction [15]: 86% and 100%; Stool output [16]: >3.6 g (350g of rat weight)-1; Stool output [17]: <0.4 g (350g of rat weight)-1; Stool output [18]: <0 g (350g of rat weight)-1; Stool output [19]: <0 g (350g of rat weight)-1; Stool output [20]: <0 g (350g of rat weight)-1; Stool output [21]: <0 g (350g of rat weight)-1; Stool output [22]: <0 g (350g of rat weight)-1; Stool output [23]: <0 g (350g of rat weight)-1; Stool output [24]: 4.9 g (350g of rat weight)-1; Reduction [25]: 75% and 100%; Reduction [26]: 24%; Reduction [27]: 73% and 92%; Reduction [28]: 64% and 100%; Reduction [29]: 68% and 100%; Reduction [30]: 65% and 100%; Reduction [31]: 77% and 100%; Reduction [32]: 77% and 100%

Which results are given for `CC(C)CCNCCCNCCCCNCCCNCCC(C)C`?
Stool output [33]: <0 g (350g of rat weight)-1; Stool output [34]: >7.8 g (350g of rat weight)-1; Weight loss [9]: 14.6 g; Weight loss [35]: >14.2 g; Weight loss [36]: <1.6 g; Weight loss [37]: >18.3 g; Reduction [38]: 89% and 100%; Stool output [24]: 4.6 g (350g of rat weight)-1; Stool output [39]: >4.9 g (350g of rat weight)-1
